Active and inactive are the calls of the source. The rule behind the calls is not given here. Some results are limits rather than exact numbers.

Data set [1] has as its system SARS-CoV-2. The data set can be described thus: Antiviral activity against SARS-CoV-2 infected in hACE2 expressing female B6.Cg-Tg(K18-ACE2)2Prlmn/J mouse model assessed as reduction in body weight loss at 100 mg/kg, po preadministered twice daily for 4 days at 8 hrs interval with four hours before and after viral challenge and measured 9 days post viral challenge. In kind it is functional, organism-based. Conditions: Severe acute respiratory syndrome coronavirus 2, time 9.0 day.

In data set [2] the test system is SARS-CoV-2. The data set can be described thus: Antiviral activity against SARS-CoV-2 Wuhan-like (hCoV-19/Korea/KCDC06/2020) infected in human Calu-3 cells assessed as reduction in number of spike-protein expressing cells pre-infected for 30 mins followed by compound addition and measured 48 hrs post-infection by DAPI staining based immunofluorescence analysis relative to control. It is filed as functional, organism-based. Conditions: Severe acute respiratory syndrome coronavirus 2, Wuhan-like (hCoV-19/Korea/KCDC06/2020).

Data set [3] is described as follows: Clearance in male ICR mouse at 5 mg/kg, iv measured after 24 hrs by LC-MS/MS analysis. Conditions: in vivo. In kind it is ADME, organism-based.
The subject of data set [4] is Middle East respiratory syndrome-related coronavirus. Kind of data set: Antiviral activity against MERS-CoV KOR/KNIH/002_05_2015 infected in human Huh-7 cells assessed as inhibition of virus-induced cytopathic effect measured 2 to 7 days post infection by MTT-based cell viability assay. The conditions noted are these: KOR/KNIH/002_05_2015, Huh-7. In kind it is functional, organism-based.

A short description of data set [5]: Cytotoxicity against human H1-HeLa cells assessed as reduction in cell viability incubated for 72 hrs. It is filed as toxicity, cell-based.
Data set [6] concerns Influenza A virus. Kind of data set: Antiviral activity against Influenza A virus A/Hong Kong/8/68 (H3N2) infected in MDCK cells assessed as reduction in virus-induced cytopathic effect incubated for 3 days in presence of TPCK-treated trypsin by MTT assay. It is filed as functional, organism-based. Conditions: 72 h.
The nature of data set [7]: Cytotoxicity against HEK293T cells assessed as reduction in cell viability measured after 48 hrs by MTT assay. It is filed as toxicity, cell-based, HEK-293T. The conditions noted are these: human.
A short description of data set [8]: Oral bioavailability in male ICR mouse at 10 mg/kg measured after 24 hrs by LC-MS/MS analysis. In kind it is ADME, organism-based. Conditions: in vivo.
A short description of data set [9]: Cytotoxicity against golden hamster BHK-21 cells assessed as reduction in cell viability by MTT assay. It is filed as toxicity, cell-based, Mesocricetus auratus. (In general: Formazan colour is commonly taken as a measure of viable cells.)
Data set [10] in a line: Cytotoxicity against rhesus monkey LLC-MK2 cells assessed as reduction in cell viability by MTT-based cell viability assay. It is filed as toxicity, Macaca mulatta.
The subject of data set [11] is SARS-CoV-2. The data set can be described thus: Antiviral activity against SARS-CoV-2 infected in African green monkey Vero cells assessed as reduction in viral N protein level measured after 1 day by Western blot analysis. Conditions: Severe acute respiratory syndrome coronavirus 2, dose 0.1-10 µM. It is filed as functional, organism-based. (In western blotting, separated proteins are transferred to a membrane and probed.)

Data set [12] can be described thus: AUClast in male ICR mouse at 5 mg/kg, iv measured after 24 hrs by LC-MS/MS analysis. In kind it is ADME, organism-based. Conditions: in vivo.
Data set [13] is described as follows: MRTinfinity in male ICR mouse at 10 mg/kg, po measured after 24 hrs by LC-MS/MS analysis. It is filed as ADME, organism-based. The conditions noted are these: in vivo.

Broadly, the EC50 is the concentration at which the effect is half-maximal. The term clearance denotes a measure of how efficiently the substance is removed, as volume per time. In general, CC50 refers to the concentration at which the toxic effect on the cells reaches its halfway point. A word on the AUC(0-t): it is exposure summed from dosing to a finite time, without extrapolation to infinity. As usually defined, the MRT inf is a mean duration of stay, worked out from the concentration-time curve. Consider `O=c1ccn([C@@H]2S[C@H](CO)[C@@H](O)[C@H]2O)c(=O)[nH]1`, for which the result in [1] was Active. Further, the concentration giving a half-maximal response (EC50) was found to be 4.08 µM in data set [2], 4.04 µM in [4] and 15.3 µM in data set [6]. The same molecule gave a clearance in [3] of 4.17 mL/min/kg. The 50% cytotoxic concentration (CC50) at 72 h in data set [5] was over 100 µM. Also, the half-maximal cytotoxic concentration (CC50) at 48 h in [7] was 81.1 µM. Further, the bioavailability in data set [8] was found to be 109%. The half-maximal cytotoxic concentration (CC50) in [9] is 93.7 µM; in [10], over 100 µM. Also, the Activity entry in data set [11] is “Dose-dependent-effect”. Also, the AUC(0-t) at 24 h in data set [12] stood at 17500 ng·h/mL. Further, the MRT inf in [13] is 10.5 h.

The values above are taken from ChEMBL document CHEMBL6182943, “Identification of 4'-Thiouridine as an Orally Available Antiviral Agent Targeting Both RdRp and NiRAN Functions of SARS-CoV-2 Nsp12” (J Med Chem, 2025).
